Reference: article PMC9632963, “Preclinical characterization and phase I clinical trial of CT053PTSA targets MET, AXL, and VEGFR2 in patients with advanced solid tumors” (Frontiers in Immunology, 2022)
Read-outs that look alike come from different tables or passages of the source.

What was measured:
[1] = system: circulating tumor DNA (ctDNA); assay: Circulating tumor DNA sequencing in plasma of one NSCLC patient; type: in vivo, human
Experimental: Moreover, we analyzed the patient who achieved SD for 24 weeks. The patient was a person with EGFR exon 19-21 wild type, ALK negative non-small cell lung cancer (NSCLC). They had failed 1 line of platinum-based chemotherapy with a PFS of 27 months. […] The plasma of the patient was prospectively collection on the first day of cycle 1, 3, 6, whole exon sequencing of 416 genes was performed to assess circulating tumor DNA (ctDNA) with Illumina platform. […] The patient received 6-time tumor assessments, the response was classified as SD ( Figure 5E ), and the nontarget lesions remained unchanged ( Figure 5F ). However, the patient experienced tumor progression after 6 cycles of CT053PTSA administration, and which point, the target lesion enlarged.

[2] = Phase I trial: clinical pharmacokinetics in plasma; type: in vivo, human; settings: for AUC(0-inf) / Cmax / AUC(0-t) / AUC / half-life / Tmax / Vd/F: human, plasma; for AUC(0-t): read-out: AUC0-168; for AUC: read-out: AUC0-τ; for Vd/F: read-out: Vz/F
Experimental: A clinical pharmacokinetic study of CT053PTSA was performed for both single doses and multiple doses. Blood samples were collected from each subject at prespecified times before and after single-dose administration (systemic blood samples: before treatment and 0.5, 1, 2, 3, 4, 5, 8, 12, 24, 36, 48, 72, 120 and 168 hours after treatment) and during multiple dosing (cycle 1 before treatment on Days 8, 15 and 22, as well as systemic blood samples on Day 28). […]
Statistical analysis of CT053-treated tumors versus vehicle-treated tumors or versus nontreated tumors was performed by repeated-measures ANOVA. The data from the tumor xenograft models were expressed as the means ± standard error of the mean (SEM) and were plotted as a function of time. Noncompartmental pharmacokinetic analysis was performed using Phoenix WinNonlin Version 6.2.1 (Certara Inc., NJ, USA). Demographics and laboratory results of all the subjects were summarized using descriptive statistics. The pharmacokinetic parameters Tmax and T1/2 were shown as the median (min, max) and mean ± SD, respectively. A two-sided P < 0.05 was considered to indicate statistical significance. Statistical analysis was performed by using GraphPad Prism 5.0 (GraphPad Prism, RRID : SCR_002798) and SPSS software version 19.0 (SPSS, RRID : SCR_002865).

[3] = oral, 15 mg, Multiple doses day 28, 15 mg, n=1
[4] = oral, 15 mg, Single dose day 1, 15 mg, n=1
[5] = oral, 30 mg, Multiple doses day 28, 30 mg, n=1
[6] = oral, 30 mg, Single dose day 1, 30 mg, n=1
[7] = oral, 60 mg, Multiple doses day 28, 60 mg, n=3, Geometric Mean (CV%)
[8] = oral, 60 mg, Single dose day 1, 60 mg, n=5, Geometric Mean (CV%)
[9] = oral, 100 mg, Multiple doses day 28, 100 mg, n=5, Geometric Mean (CV%)
[10] = oral, 100 mg, Single dose day 1, 100 mg, n=7, Geometric Mean (CV%)
[11] = oral, 150 mg, Multiple doses day 28, 150 mg, n=1
[12] = oral, 150 mg, Single dose day 1, 150 mg, n=4, Geometric Mean (CV%)

Cc1c(C(=O)Nc2ccc(Oc3ccnc4cc(OCC(C)(C)O)ccc34)c(F)c2)c(=O)n(-c2ccccc2)n1C [CT053PTSA]
ctDNA APC p.E520X (c. G1558T) ([1]; Cycle 1, 60 mg): 0% | ctDNA AXL p. A79T (c. G235A) ([1]; Cycle 1, 60 mg): 0% | ctDNA BRCA1 p.E344X (c. G1030T) ([1]; Cycle 1, 60 mg): 0.32% | ctDNA EGFR p. F712Y (c. T2135A) ([1]; Cycle 1, 60 mg): 0.12% | ctDNA FLT3 p.p893L (c.C2678T) ([1]; Cycle 1, 60 mg): 0% | ctDNA FLT4 p.D998V (c.A2993T) ([1]; Cycle 1, 60 mg): 0% | ctDNA FP300 p.Q2332X (c.C6994T) ([1]; Cycle 1, 60 mg): 0.19% | ctDNA PALB2 p.C800X (c.T2400A) ([1]; Cycle 1, 60 mg): 0% | ctDNA APC p.E520X (c. G1558T) ([1]; Cycle 3, 60 mg): 0% | ctDNA AXL p. A79T (c. G235A) ([1]; Cycle 3, 60 mg): 0% | ctDNA BRCA1 p.E344X (c. G1030T) ([1]; Cycle 3, 60 mg): 0.12% | ctDNA EGFR p. F712Y (c. T2135A) ([1]; Cycle 3, 60 mg): 0% | ctDNA FLT3 p.p893L (c.C2678T) ([1]; Cycle 3, 60 mg): 0% | ctDNA FLT4 p.D998V (c.A2993T) ([1]; Cycle 3, 60 mg): 0% | ctDNA FP300 p.Q2332X (c.C6994T) ([1]; Cycle 3, 60 mg): 0.21% | ctDNA PALB2 p.C800X (c.T2400A) ([1]; Cycle 3, 60 mg): 0% | ctDNA APC p.E520X (c. G1558T) ([1]; Cycle 6, 60 mg): 0% | ctDNA AXL p. A79T (c. G235A) ([1]; Cycle 6, 60 mg): 0% | ctDNA BRCA1 p.E344X (c. G1030T) ([1]; Cycle 6, 60 mg): 0% | ctDNA EGFR p. F712Y (c. T2135A) ([1]; Cycle 6, 60 mg): 0% | ctDNA FLT3 p.p893L (c.C2678T) ([1]; Cycle 6, 60 mg): 0% | ctDNA FLT4 p.D998V (c.A2993T) ([1]; Cycle 6, 60 mg): 0% | ctDNA FP300 p.Q2332X (c.C6994T) ([1]; Cycle 6, 60 mg): 0% | ctDNA PALB2 p.C800X (c.T2400A) ([1]; Cycle 6, 60 mg): 0% | Cl/F ([2]; Multiple doses day 28, 15 mg, n=1): 1580 mL/h | Cl/F ([2]; Multiple doses day 28, 30 mg, n=1): 1090 mL/h | Cl/F ([2]; Multiple doses day 28, 150 mg, n=1): 4470 mL/h | Cl/F ([2]; Single dose day 1, 15 mg, n=1): 2420 mL/h | Cl/F ([2]; Single dose day 1, 30 mg, n=1): 1000 mL/h | steady state reached ([2]; daily dosing): ≤ 8 days | AUC(0-inf) [2, 3]: 24 µg·h/mL | Cmax [2, 3]: 0.598 µg/mL | AUC(0-t) [2, 3]: 23.7 µg·h/mL | AUC [2, 3]: 9.51 µg·h/mL | half-life ([2]; oral, 15 mg, Multiple doses day 28, 15 mg, n=1, read-out: T1/2 (converted)): 27.9 h | Tmax ([2]; oral, 15 mg, Multiple doses day 28, 15 mg, n=1, read-out: Tmax): 2 h | Vd/F [2, 3]: 63.5 L | AUC(0-inf) [2, 4]: 6.19 µg·h/mL | Cmax [2, 4]: 0.345 µg/mL | AUC(0-t) [2, 4]: 6.12 µg·h/mL | AUC [2, 4]: 3.76 µg·h/mL | half-life ([2]; oral, 15 mg, Single dose day 1, 15 mg, n=1, read-out: T1/2 (converted)): 31.4 h | Tmax ([2]; oral, 15 mg, Single dose day 1, 15 mg, n=1, read-out: Tmax): 3 h | Vd/F [2, 4]: 110 L | AUC(0-inf) [2, 5]: 84.1 µg·h/mL | Cmax [2, 5]: 1.79 µg/mL | AUC(0-t) [2, 5]: 81.2 µg·h/mL | AUC [2, 5]: 27.6 µg·h/mL | half-life ([2]; oral, 30 mg, Multiple doses day 28, 30 mg, n=1, read-out: T1/2 (converted)): 38.4 h | Tmax ([2]; oral, 30 mg, Multiple doses day 28, 30 mg, n=1, read-out: Tmax): 2 h | Vd/F [2, 5]: 60.2 L | AUC(0-inf) [2, 6]: 29.9 µg·h/mL | Cmax [2, 6]: 0.796 µg/mL | AUC(0-t) [2, 6]: 29.1 µg·h/mL | AUC [2, 6]: 12.3 µg·h/mL | half-life ([2]; oral, 30 mg, Single dose day 1, 30 mg, n=1, read-out: T1/2 (converted)): 31.9 h | Tmax ([2]; oral, 30 mg, Single dose day 1, 30 mg, n=1, read-out: Tmax): 3 h | Vd/F [2, 6]: 46.2 L | AUC(0-inf) [2, 7]: 91.1 µg·h/mL | Cmax [2, 7]: 2.72 µg/mL | AUC(0-t) [2, 7]: 89.7 µg·h/mL | AUC [2, 7]: 37 µg·h/mL | Vd/F [2, 7]: 60.5 L | half-life ([2]; oral, 60 mg, Multiple doses day 28, 60 mg, n=3, Mean ± SD, read-out: T1/2 (converted)): 26.1 ± 4.5 h | Tmax ([2]; oral, 60 mg, Multiple doses day 28, 60 mg, n=3, Median (Min, Max), read-out: Tmax): 2 h | AUC(0-inf) [2, 8]: 29.2 µg·h/mL | Cmax [2, 8]: 1.34 µg/mL | AUC(0-t) [2, 8]: 28.7 µg·h/mL | AUC [2, 8]: 13.7 µg·h/mL | Vd/F [2, 8]: 71.8 L | half-life ([2]; oral, 60 mg, Single dose day 1, 60 mg, n=5, Mean ± SD, read-out: T1/2 (converted)): 24.7 ± 5.7 h | Tmax ([2]; oral, 60 mg, Single dose day 1, 60 mg, n=5, Median (Min, Max), read-out: Tmax): 2 h | AUC(0-inf) [2, 9]: 156 µg·h/mL | Cmax [2, 9]: 4.33 µg/mL | AUC(0-t) [2, 9]: 146 µg·h/mL | AUC [2, 9]: 57.3 µg·h/mL | Vd/F [2, 9]: 90.9 L | half-life ([2]; oral, 100 mg, Multiple doses day 28, 100 mg, n=5, Mean ± SD, read-out: T1/2 (converted)): 38.2 ± 14.3 h | Tmax ([2]; oral, 100 mg, Multiple doses day 28, 100 mg, n=5, Median (Min, Max), read-out: Tmax): 2 h | AUC(0-inf) [2, 10]: 57.7 µg·h/mL | Cmax [2, 10]: 1.89 µg/mL | AUC(0-t) [2, 10]: 56 µg·h/mL | AUC [2, 10]: 24.4 µg·h/mL | Vd/F [2, 10]: 79.8 L | half-life ([2]; oral, 100 mg, Single dose day 1, 100 mg, n=7, Mean ± SD, read-out: T1/2 (converted)): 32.8 ± 8.5 h | Tmax ([2]; oral, 100 mg, Single dose day 1, 100 mg, n=7, Median (Min, Max), read-out: Tmax): 2 h | AUC(0-inf) [2, 11]: 50.6 µg·h/mL | Cmax [2, 11]: 2.93 µg/mL | AUC(0-t) [2, 11]: 50.5 µg·h/mL | AUC [2, 11]: 33.6 µg·h/mL | half-life ([2]; oral, 150 mg, Multiple doses day 28, 150 mg, n=1, read-out: T1/2 (converted)): 13.8 h | Tmax ([2]; oral, 150 mg, Multiple doses day 28, 150 mg, n=1, read-out: Tmax): 2 h | Vd/F [2, 11]: 88.7 L | AUC(0-inf) [2, 12]: 68.5 µg·h/mL | Cmax [2, 12]: 2.97 µg/mL | AUC(0-t) [2, 12]: 65.5 µg·h/mL | AUC [2, 12]: 30.5 µg·h/mL | Vd/F [2, 12]: 99.8 L | half-life ([2]; oral, 150 mg, Single dose day 1, 150 mg, n=4, Mean ± SD, read-out: T1/2 (converted)): 33.9 ± 13.7 h | Tmax ([2]; oral, 150 mg, Single dose day 1, 150 mg, n=4, Median (Min, Max), read-out: Tmax): 2.5 h | Tmax ([2]; po, multiple doses, oral, read-out: median Tmax): 2 h | half-life ([2]; po, multiple oral doses, read-out: mean half-life, range over cohorts): 13.8 to 38.4 h | Tmax ([2]; po, single dose, oral, read-out: median Tmax): 2 to 3 h | half-life ([2]; po, single oral dose, read-out: mean half-life, range over cohorts): 24.7 to 33.9 h
